Test results taken from publication PMC12169614, “Exploring Long Arm Amide-Linked Side Chains in the Design of Antifungal Azole Inhibitors of Sterol 14α-Demethylase (CYP51)” (Journal of Medicinal Chemistry, 2025).

Assays:
Y2768 OE CauCYP51 Y132F = assay: MIC80 determination, strain Y2768; format: cell-based, S. cerevisiae
Description: (§1) Cells were seeded at an OD600 nm of 0.005 (1.5 × 10^4 CFU), and the plates were incubated at 30 °C with shaking at 200 rpm for 48 h for S. cerevisiae strains and 24 h for C. albicans . Cell growth was assessed by measuring the OD600 nm using a Synergy 2 multimode plate reader (BioTek Instruments, VT, USA). Each MIC80 was determined using triplicate measurements for pools of 4 clones of each strain in three separate experiments.

Y2411 Endog. ScCYP51 = assay: MIC80 determination, strain Y2411; format: cell-based, S. cerevisiae; conditions: Saccharomyces cerevisiae
Summary of the method: (§2)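 Seed at OD600 0.005 (1.5 × 10^4 CFU); shake at 200 rpm, 30 °C; stop at 48 h (S. cerevisiae) or 24 h (C. albicans); measure OD600 to derive MIC80.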

Y2765 OE CauMDR1 = assay: MIC80 determination, strain Y2765; format: cell-based, S. cerevisiae; conditions: Saccharomyces cerevisiae
Description: as §1

Y2651 OE CYP51 F5 RaCPR = assay: MIC80 determination, strain Y2651; format: cell-based, S. cerevisiae; conditions: Saccharomyces cerevisiae
Summary of the method: as §2

Y2769 OE CauCYP51 K143R = assay: MIC80 determination, strain Y2769; format: cell-based, S. cerevisiae
Description: as §1

Y2300 OE ScCYP51 = assay: MIC80 determination, strain Y2300; format: cell-based, S. cerevisiae; conditions: Saccharomyces cerevisiae
Summary of the method: as §2

Y2767 OE CauCYP51 = assay: MIC80 determination, strain Y2767; format: cell-based, S. cerevisiae
Description: as §1

CYP2D6 = CYP2D6 (Homo sapiens, UniProt P10635); assay: biochemical; conditions: human liver drug metabolizing enzyme; read-out: CYP IC50 2D6
Chain of CYP2D6 (P10635 whole entry): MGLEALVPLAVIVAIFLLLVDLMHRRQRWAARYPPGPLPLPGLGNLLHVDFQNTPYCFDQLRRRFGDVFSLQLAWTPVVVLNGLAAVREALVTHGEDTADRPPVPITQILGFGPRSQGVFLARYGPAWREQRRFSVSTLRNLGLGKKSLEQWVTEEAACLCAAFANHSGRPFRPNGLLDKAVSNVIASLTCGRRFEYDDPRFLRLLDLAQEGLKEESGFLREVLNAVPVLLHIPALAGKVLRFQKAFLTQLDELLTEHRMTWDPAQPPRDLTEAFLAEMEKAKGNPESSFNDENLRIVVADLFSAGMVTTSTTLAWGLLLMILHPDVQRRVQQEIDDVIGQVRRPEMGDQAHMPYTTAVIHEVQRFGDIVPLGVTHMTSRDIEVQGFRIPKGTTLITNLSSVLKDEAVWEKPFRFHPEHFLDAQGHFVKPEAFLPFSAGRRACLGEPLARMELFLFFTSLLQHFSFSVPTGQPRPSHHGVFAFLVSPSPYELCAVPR

Y2721 OE CpCYP51 = assay: MIC80 determination, strain Y2721; format: cell-based, S. cerevisiae
Summary of the method: as §2

[1] = test system: Y2746 OE AfCYP51A AfCPR AfERG6; assay: MIC80 determination, strain Y2746; format: cell-based, S. cerevisiae; conditions: Saccharomyces cerevisiae
Summary of the method: as §2

[2] = test system: Y2747 OE AfCYP51B AfCPR AfERG6; assay: MIC80 determination, strain Y2747; format: cell-based, S. cerevisiae
Summary of the method: as §2

Y2374 OE CgCYP51 = assay: MIC80 determination, strain Y2374; format: cell-based, S. cerevisiae; conditions: Saccharomyces cerevisiae
Summary of the method: as §2

Y2459 OE CaCYP51 CaCpr = assay: MIC80 determination, strain Y2459; format: cell-based, S. cerevisiae
Summary of the method: as §2

Y525 OE CaMDR1a = assay: MIC80 determination, strain Y525; format: cell-based, S. cerevisiae
Summary of the method: as §2

Y570 OE CaCDR1B = assay: MIC80 determination, strain Y570; format: cell-based, S. cerevisiae
Summary of the method: as §2

Y611 FHB3 = assay: MIC80 determination, C. albicans clinical isolate Y611 FHB3; format: cell-based; conditions: Candida albicans, 24 h, pH 7
Summary of the method: as §2

Y433 OE CgCDR1 = assay: MIC80 determination, strain Y433; format: cell-based, S. cerevisiae; conditions: Saccharomyces cerevisiae
Summary of the method: as §2

[3] = test system: Y2301 ScCYP51 Y140F mutant; assay: Agarose (disk) diffusion assay, strain Y2301; format: cell-based, S. cerevisiae; conditions: 10 nmol/disk, 30 °C, 48 h
Excerpt: (§3) Final compounds were screened as racemic mixtures using agarose diffusion assays to visualize their inhibitory activity against a panel of recombinant S. cerevisiae strains i.e., S. cerevisiae strains expressing control levels of wild-type CYP51 (ScCYP51), overexpressed wild-type ScCYP51, overexpressed azole-resistant ScCYP51 Y140F/H mutations and overexpressed C. albicans efflux pumps MDR1a or CDR1B (Figure and Table S1).
(§4) The susceptibilities of S. cerevisiae and Candida species strains to azole compounds were observed as zones of growth inhibition in agarose diffusion assays. The disk diffusion assays were carried out as described by Keniya et al. Complete supplement mixture (CSM) agarose (0.6% agarose [wt/vol]; 20 mL of synthetic defined medium (SD); pH 6.8–7) was solidified in a rectangular Petri dish which was overlaid with CSM agarose (0.6% [wt/vol]; 5 mL; pH 6.8–7) seeded with yeast cells at an optical density (OD600) of 0.008 (118,000 cells per 1 mL of overlay). Azole compounds (10 nmol/disk) were applied to sterile BBL paper disks (Becton Dickinson Co., Sparks, MD) and placed on solidified overlays. Cell growth was assessed after incubation at 30 °C for 48 h.

Y1 = assay: MIC80 determination, C. albicans clinical isolate Y1; format: cell-based; conditions: Candida albicans, pH 7, 24 h
Summary of the method: as §2

[4] = test system: Y2411 azole sensitive control strain; assay: Agarose (disk) diffusion assay, strain Y2411; format: cell-based, S. cerevisiae; conditions: 10 nmol/disk, 30 °C, 48 h
Excerpt: as §3, §4

CYP2C19 = CYP2C19 (Homo sapiens, UniProt P33261); assay: CYP IC50 profile, CYP2C19; format: biochemical; conditions: human liver drug metabolizing enzyme; read-out: CYP IC50 2C19
Chain of CYP2C19 (P33261 whole entry): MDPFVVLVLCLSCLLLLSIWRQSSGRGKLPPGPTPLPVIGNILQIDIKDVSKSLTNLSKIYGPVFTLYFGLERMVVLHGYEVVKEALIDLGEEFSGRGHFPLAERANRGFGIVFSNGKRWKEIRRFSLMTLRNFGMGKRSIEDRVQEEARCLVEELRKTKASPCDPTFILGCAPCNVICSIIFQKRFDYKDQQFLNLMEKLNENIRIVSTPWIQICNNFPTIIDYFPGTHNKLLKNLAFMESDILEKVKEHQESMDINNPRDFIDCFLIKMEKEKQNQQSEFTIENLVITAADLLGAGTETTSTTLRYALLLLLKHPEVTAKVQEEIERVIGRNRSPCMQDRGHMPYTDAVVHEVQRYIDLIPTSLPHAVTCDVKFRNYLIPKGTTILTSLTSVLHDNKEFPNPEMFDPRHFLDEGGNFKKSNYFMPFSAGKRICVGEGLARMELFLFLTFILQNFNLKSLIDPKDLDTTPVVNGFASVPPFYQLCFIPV

Y2649 OE CYP51 F1 RaCPR = assay: MIC80 determination, strain Y2649; format: cell-based, S. cerevisiae
Summary of the method: as §2

Y2716 OE CpCYP51 Y132F = assay: MIC80 determination, strain Y2716; format: cell-based, S. cerevisiae
Summary of the method: as §2

[5] = Saccharomyces cerevisiae, 48 h, pH 6.8

O=C(NCC(O)(Cn1cncn1)c1ccc(F)cc1F)c1ccc(-c2ccc(OC(F)(F)F)cc2)cc1 (stereo not drawn) [Compound 22, N-(2-(2,4-Difluorophenyl)-2-hydroxy-3-(1H-1,2,4-triazol-1-yl)propyl)-4’-(trifluoromethoxy)-[1,1’-biphenyl]-4-carboxamide]
MIC (Y2768 OE CauCYP51 Y132F; Candidozyma auris, read-out: MIC (nM) C. auris model Y2768): 241 ± 38 nM
MIC80 (Y2768 OE CauCYP51 Y132F; Saccharomyces cerevisiae): 0.241 ± 0.038 µM
MIC80 (Y2411 Endog. ScCYP51; strain Y2411 Endog. ScCYP51, SD pH 6.8, 30 °C, 48 h): 0.03 ± 0.023 µM
MIC (Y2411 Endog. ScCYP51; supplement csv, read-out: MIC (nM) S. cerevisiae Y2411): 30 ± 23 nM
MIC80 (Y2765 OE CauMDR1): 0.059 ± 0.014 µM
MIC80 (Y2651 OE CYP51 F5 RaCPR): 1.36 ± 0.907 µM
MIC (Y2769 OE CauCYP51 K143R; Candidozyma auris, read-out: MIC (nM) C. auris model Y2769): 225 ± 33 nM
MIC80 (Y2769 OE CauCYP51 K143R; Saccharomyces cerevisiae): 0.225 ± 0.033 µM
MIC80 (Y2300 OE ScCYP51; 48 h, pH 6.8): 0.114 ± 0.014 µM
MIC (Y2300 OE ScCYP51; read-out: MIC (nM) S. cerevisiae Y2300): 114 ± 14 nM
MIC (Y2767 OE CauCYP51; Candidozyma auris, read-out: MIC (nM) C. auris model Y2767): 110 ± 10 nM
MIC80 (Y2767 OE CauCYP51; Saccharomyces cerevisiae): 0.11 ± 0.01 µM
IC50 (CYP2D6): > 25 µM
MIC80 (Y2721 OE CpCYP51; Saccharomyces cerevisiae): 0.099 µM
MIC (Y2721 OE CpCYP51; read-out: MIC (nM) C. parapsilosis model Y2721): 99 nM
MIC80 [1]: 12.4 µM
MIC ([2]; Aspergillus fumigatus, read-out: MIC (nM) A. fumigatus model Y2747): 72 ± 29 nM
MIC80 ([2]; Saccharomyces cerevisiae): 0.072 ± 0.029 µM
MIC80 (Y2374 OE CgCYP51): 0.101 µM
MIC (Y2374 OE CgCYP51; read-out: MIC (nM) C. glabrate model Y2374): 101 nM
MIC80 (Y2459 OE CaCYP51 CaCpr; [5]): 0.054 ± 0.022 µM
MIC (Y2459 OE CaCYP51 CaCpr; read-out: MIC (nM) C. albicans model Y2459): 54 ± 22 nM
MIC80 (Y525 OE CaMDR1a; [5]): 0.451 µM
MIC (Y525 OE CaMDR1a; read-out: MIC (nM) C. albicans model Y525): 451 nM
MIC (Y570 OE CaCDR1B; Candida albicans, read-out: MIC (nM) C. albicans model Y570): 5800 nM
MIC80 (Y570 OE CaCDR1B; [5]): 5.8 µM
MIC80 (Y611 FHB3): 1.65 µM
MIC80 (Y433 OE CgCDR1): 5.85 µM
zone of growth inhibition (inhibitory activity in words) [3]: unaffected inhibition zone size
MIC80 (Y1): 0.067 µM
zone of growth inhibition (inhibitory activity in words) [4]: high potency
IC50 (CYP2C19): 14.5 ± 2.23 µM
MIC (Y2649 OE CYP51 F1 RaCPR; Rhizopus arrhizus, read-out: MIC (nM) R. arrhizus model Y2649): 470 ± 240 nM
MIC80 (Y2649 OE CYP51 F1 RaCPR; Saccharomyces cerevisiae): 0.47 ± 0.24 µM
increase in resistance owing to the CpCYP51 Y132F mutation (Y2716 OE CpCYP51 Y132F; MIC80 Y2716 versus Y2721): 2 fold
MIC80 (Y2716 OE CpCYP51 Y132F; Saccharomyces cerevisiae): 0.21 ± 0.043 µM
